Assay results as given in patent publication US5905077A, “Inhibitors of HIV protease useful for the treatment of AIDS” (Eli Lilly and Company, priority 1997, dated 1999).
In brackets after ≈: the same amount, converted by molar mass.

target: T1, HIV-1 protease (Human immunodeficiency virus type 1 group M subtype B, UniProt P04585); experiment: biochemical; assay type: biochemical; conditions: not given
T1 construct: Purified HIV-1 protease was obtained as described above; made in house; host or cells: E. coli K12 L507/pHP10D (NRRL B-18560)
Method: E. Fluorescence HIV-1 Protease Inhibitor Assay
The following buffers and solutions are used in the Fluorescence HIV-1 Protease Inhibitor Assay:
To each well of a round bottom, 96-well plate is added 20 μL of the Enzyme Solution followed by 10 μL of the compound to be evaluated in a 20% aqueous dimethylsulfoxide solution. Purified HIV-1 protease was obtained as described above. The resulting solution is incubated for one hour at room temperature and then 20 μL of a solution containing the substrate, prepared above, in MES-ALB buffer (1.5 μl/mL) is added to each well. The solutions are then incubated for 16 hours at room temperature and then each well is diluted with 150 μL of MES-ALB buffer.
To each well of a second round bottom, 96-well Pandex plate is added 25 μL of the Avidin Coated Beads Solution. Then, to each well is added 25 μL of the diluted incubation solutions, prepared above. The solutions are mixed thoroughly and the plates are loaded into a Pandex® machine, washed, evacuated and read. Sample detection was performed by excitation at 485 nm, reading the resulting epifluorescence at 535 nm.

With `CC(C)(C)NC(=O)[C@@H]1C[C@@H]2CCCC[C@@H]2CN1C[C@@H](O)[C@H](Cc1ccccc1)NC(=O)[C@@H](C[S+]([O-])c1ccc2ccccc2c1)NS(C)(=O)=O` (stereo partly drawn) [Example 42, [2R-(2R*,3R*,6R*,3'S*,4a'S*,8a'S*)]-N(t-Butyl)-2'-[2-hydroxy-3-phenylmethyl-4-aza-5-oxo-6-N(methylsulfonyl)amino-7-naphth-2-ylsulfinyl]heptyl decahydroisoquinoline-3'-carboxamide] as the compound, how does the IC50 read?
Its IC50 is 0.621 nM.

With `CC(C)(C)NC(=O)[C@@H]1C[C@@H]2CCCC[C@@H]2CN1C[C@@H](O)[C@H](Cc1ccccc1)NC(=O)[C@@H](CSc1ccc2ccccc2c1)NS(C)(=O)=O` [Example 41, [2R-(2R*,3R*,6R*,3'S*,4a'S*,8a'S*)]-N(t-Butyl)-2'-[2-hydroxy-3-phenylmethyl-4-aza-5-oxo-6-N(methylsulfonyl)amino-7-naphth-2-ylthio]heptyl decahydroisoquinoline-3'-carboxamide] as the compound, how does the IC50 read?
Its IC50 is 7.76 nM.

With `CC(C)(C)NC(=O)[C@@H]1C[C@@H]2CCCC[C@@H]2CN1C[C@@H](O)[C@H](Cc1ccccc1)NC(=O)[C@@H](CSc1ccc(F)cc1)NS(C)(=O)=O` [Example 37, [2R-(2R*,3R*,6R*,3'S*,4a'S*,8a'S*)]-N(t-Butyl)-2'-[2-hydroxy-3-phenylmethyl-4-aza-5-oxo-6-N(methylsulfonyl)amino-7-p-fluoro-phenylthio]heptyl decahydroisoquinoline-3'-carboxamide] as the compound, how does the IC50 read?
Its IC50 is 5.32 nM.

Which IC50 does the source give for `CC(C)(C)NC(=O)[C@@H]1C[C@@H]2CCCC[C@@H]2CN1C[C@@H](O)[C@H](CSc1ccccc1)NC(=O)[C@@H](CS(=O)(=O)c1ccc(F)cc1)NS(C)(=O)=O` [Example 47] here?
The IC50 was 10.9 nM.

For `CC(C)(C)NC(=O)[C@@H]1CN(Cc2cccnc2)CCN1C[C@@H](O)[C@H](Cc1ccccc1)NC(=O)[C@@H](CS(=O)(=O)c1ccc(F)cc1)NS(C)(=O)=O` (relative stereo) [Example 46], which IC50 is on record?
The IC50 was 1.23 nM.

Which IC50 does the source give for `CC(C)(C)NC(=O)[C@@H]1C[C@@H]2CCCC[C@@H]2CN1C[C@@H](O)[C@H](Cc1ccccc1)NC(=O)[C@@H](CS(=O)(=O)c1ccc(F)cc1)NS(C)(=O)=O` [Example 40, [2R-(2R*,3R*,6R*,3'S*,4a'S*,8a'S*)]-N(t-Butyl)-2'-[2-hydroxy-3-phenylmethyl-4-aza-5-oxo-6-N(methylsulfonyl)amino-7-p-fluoro-phenylsulfonyl]heptyl decahydroisoquinoline-3'-carboxamide] here?
The IC50 was 0.635 nM.

With `CC(C)(C)NC(=O)[C@@H]1C[C@@H]2CCCC[C@@H]2CN1C[C@@H](O)[C@H](Cc1ccccc1)NC(=O)[C@@H](CS(=O)(=O)c1ccc(F)cc1)NS(C)(=O)=O` [Example 39, [2R-(2R*,3R*,6R*,3'S*,4a'S*,8a'S*)]-N(t-Butyl)-2'-[2-hydroxy-3-phenylmethyl-4-aza-5-oxo-6-N(methylsulfonyl)amino-7-p-fluoro-phenylsulfonyl]heptyl decahydroisoquinoline-3'-carboxamide] as the compound, how does the IC50 read?
The IC50 was 0.846 nM.

Which IC50 does the source give for `CC(=O)N[C@H](CSCc1ccccc1)C(=O)N[C@@H](Cc1ccccc1)[C@H](O)CN1C[C@H]2CCCC[C@H]2C[C@H]1C(=O)NC(C)(C)C` [Example 49, [2R-(2R*,3R*,6R*,3'S*,4a'S*,8a'S*)]-N(t-Butyl)-2'-[2-hydroxy-3-phenylmethyl-4-aza-5-oxo-6-N(ethanoyl)amino-7-phenylmethylthio]heptyl decahydroisoquinoline-3'-carboxamide] here?
Its IC50 is 1.1 nM.

Which IC50 does the source give for `CC(C)(C)NC(=O)[C@@H]1C[C@@H]2CCCC[C@@H]2CN1C[C@@H](O)[C@H](Cc1ccccc1)NC(=O)[C@@H](CS(=O)(=O)c1ccc2ccccc2c1)NS(C)(=O)=O` [Example 44, [2R-(2R*,3R*,6R*,3'S*,4a'S*,8a'S*)]-N(t-Butyl)-2'-[2-hydroxy-3-phenylmethyl-4-aza-5-oxo-6-N(methylsulfonyl)amino-7-naphth-2-ylsulfonyl]heptyl decahydroisoquinoline-3'-carboxamide] here?
Its IC50 is 0.202 nM.

For `CC(=O)N[C@H](CS(=O)(=O)c1ccc2ccccc2c1)C(=O)N[C@@H](Cc1ccccc1)[C@H](O)CN1C[C@H]2CCCC[C@H]2C[C@H]1C(=O)NC(C)(C)C` [Example 36, [2R-(2R*,3R*,6R*,3'S*,4a'S*,8a'S*)]-N(t-Butyl)-2'-[2-hydroxy-3-phenylmethyl-4-aza-5-oxo-6-N(ethanoyl)amino-7-naphth-2ylsulfonyl]heptyl decahydroisoquinoline-3'-carboxamide], which IC50 is on record?
Its IC50 is 0.426 nM.

For `CC(C)(C)NC(=O)[C@@H]1C[C@@H]2CCCC[C@@H]2CN1C[C@@H](O)[C@H](Cc1ccccc1)NC(=O)[C@@H](C[S+]([O-])c1ccc(F)cc1)NS(C)(=O)=O` (stereo partly drawn) [Example 38, [2R-(2R*,3R*,6R*,3'S*,4a'S*,8a'S*)]-N(t-Butyl)-2'-[2-hydroxy-3-phenylmethyl-4-aza-5-oxo-6-N(methylsulfonyl)amino-7-p-fluoro-phenylsulfinyl]heptyl decahydroisoquinoline-3'-carboxamide], which IC50 is on record?
The IC50 was 0.722 nM.

same assay, conditions: pH 5.5

`CC(=O)NC(CSCc1ccccc1)C(=O)NC(Cc1ccccc1)C(O)CN1CC2CCCCC2CC1C(=O)NC(C)(C)C` (stereo not drawn) [Example 33, [2R-(2R*,3R*,6R*,3'S*,4a'S*,8a'S*)]-N(t-Butyl)-2'-[2-hydroxy-3-phenylmethyl-4-aza-5-oxo-6-N(ethanoyl)amino-7-phenylmethylthio]heptyl decahydroisoquinoline-3'-carboxamide] was tested. Which IC50 did it give?
The IC50 was 1.1 nM.

same assay, conditions: read-out: Fluorescence Assay IC65 (65% inhibition at 0.16 ng/mL)

For `CC(C)(C)NC(=O)[C@@H]1C[C@@H]2CCCC[C@@H]2CN1C[C@@H](O)[C@H](CSc1ccccc1)NC(=O)[C@@H](CS(=O)(=O)c1ccc2ccccc2c1)NS(C)(=O)=O` [Example 48], which IC65 is on record?
The IC65 was 0.16 ng/mL (≈ 0.207 nM).
